Data: EP4610262A1, “MACROCYCLIC COMPOUND AS CDK9 INHIBITOR AND USE THEREOF” (Artivila Biopharma, priority 2022, dated 2024)
Where two headings read alike, the source gives them in different places.

How the values were obtained:
CDK9 = CDK9 (Homo sapiens, UniProt P50750); assay: Inhibition of CDK9 kinase activity (caliper mobility shift assay); assay type: biochemical; settings: for inhibition at 0.01 µM: compound at 10 nM
Protocol: (§1) Compounds were tested at a concentration of 10 nM with detection in duplicate wells, or tested at 10 concentrations starting from 10 µM with three-fold serial dilutions, with detection in duplicate wells.
(§2) The inhibitory effect of the compounds on the activity of CDK9 protein kinase was detected by the caliper mobility shift assay method. 250 nL of the compound at 100-fold final concentration was transferred to a target 384-well-plate with a dispenser Echo 550. A kinase solution at 2.5-fold final concentration was prepared using 1× kinase buffer. 10 µL of the kinase solution at 2.5-fold final concentration was added to the compound well and positive control well respectively. 10 µL of 1× kinase buffer was added to the negative control well. The 384-well plate was centrifuged at 1000 rpm for 30 seconds and incubated at room temperature for 10 minutes. A mixed solution of ATP and kinase substrate at 5/3-fold final concentration was prepared with 1× kinase buffer, and to the 384-well plate was added with 15 µL per well of the mixed solution of ATP and substrate at 5/3-fold final concentration to start the reaction. The plate was centrifuged at 1000 rpm for 30 seconds, shaken to mix evenly, and incubated at room temperature for a corresponding time. 30 µL of detection stopping solution was added to terminate the kinase reaction. The 384-well plate was centrifuged at 1000 rpm for 30 seconds and shaken to mix evenly. The conversion rate was read with Caliper EZ Reader. The percent conversion inhibition rate = (% positive control conversion rate mean - % sample conversion rate / (% positive control conversion rate mean - % negative control conversion rate mean). Among them: negative control wells represent the conversion rate readings of kinase buffer background wells; positive control wells represent the conversion rate readings of wells without inhibition by compound. With the log value of concentration as the x-axis and the percentage inhibition rate as the y-axis, a dose-response curve was fitted using the log (inhibitor) vs. response -Variable slope of the analysis software GraphPad Prism 5 to obtain the IC50 value of each compound on enzyme activity. Calculation formula: y=Bottom + (Top-Bottom)/(1+10^((LogIC50-x) × hillslope)), x: logarithm of inhibitor concentration; y: % inhibition rate.

A375 = assay: CDK9 cell activity assay, cell growth inhibition (CellTiter-Glo, 72 hours); assay type: cell-based; settings: Homo sapiens, A-375
Protocol: (§3) In the CDK9 cell activity assay, the cell line MV-4-11 was cultured in IMDM culture medium containing 10% fetal bovine serum (containing 100 U/mL penicillin and 0.1 g/L streptomycin); the cell line HCC1187 was cultured in RPMI-1640 culture medium containing 10% fetal bovine serum (containing 100 U/mL penicillin and 0.1 g/L streptomycin); the cell line Mia Paca-2 was cultured in DMEM containing 10% fetal bovine serum and 2.5% horse serum (containing 100 U/mL penicillin and 0.1 g/L streptomycin); and the cell line A375 was cultured in RPMI-1640 culture medium containing 10% fetal bovine serum (containing 100 U/mL penicillin and 0.1 g/L streptomycin). All cells were cultured in an incubator with saturated humidity at 37°C with 5% CO2.
(§4) When MV-4-11 cells, HCC1187 cells, Mia Paca-2 cells, and A375 cells grew to 80%-90% confluence, they were digested with trypsin, resuspended, counted, and diluted to a certain cell density with complete medium. 100 µL of the cells was plated into each well of a 96-well plate, and the complete medium was used as a background control. The cells were cultured overnight in an incubator with saturated humidity at 37°C with 5% CO2. The compounds were diluted with DMSO to a final concentration of 200×. 3 µL of the stock solution of the above compounds in DMSO was added to 197 µL of complete medium, and 50 µL of the compound diluted in the medium was added to the cells of each well. The cells were cultured in an incubator with saturated humidity at 37°C with 5% CO2 for 72 hours. After 72 hours, the culture plates were placed at room temperature for equilibrium. 40 µL of CellTiter-Glo® reagent was added to each well. The plate was mixed evenly on a shaker for 2 minutes to lyse the cells then incubated at room temperature for 60 minutes to stabilize the chemiluminescent signal, and the chemiluminescence was read using a PE EnVision microplate reader. The inhibition rate on cell growth was calculated as % Inh = (DMSO well - compound treatment well) / (DMSO well - background well) x 100, and fitting was performed using GraphPad Prism 5 to obtain the IC50 values against cell growth.

HCC1187 = assay: as above; assay type: cell-based; settings: Homo sapiens
Protocol: as §3, §4

Mia-Paca-2 = assay: as above; assay type: cell-based; settings: Homo sapiens
Protocol: as §3, §4

MV-4-11 = assay: as above; assay type: cell-based; settings: Homo sapiens, MV4-11
Protocol: as §3, §4

JAK2 = JAK2 (Homo sapiens, UniProt O60674); assay: Kinase selectivity, inhibition rate at 10 nM (caliper mobility shift assay); assay type: biochemical; settings: compound at 10 nM
Protocol: as §1, §2
(§5) According to the description of the above experiment on kinase activity inhibition, some compounds were tested for their selective inhibition rate against the kinases of CDK7, CDK9, JAK1, JAK2, JAK3, ITK, RET, TYK2, and LRRK2 at 10 nM. The results are shown in Table 3 below: (Inhibition rate range: A>50%; B: 25-49%; C: <25%): […]

JAK3 = JAK3 (Homo sapiens, UniProt P52333); assay: as above; assay type: biochemical; settings: compound at 10 nM
Protocol: as §1, §2, §5

RET = RET (Homo sapiens, UniProt P07949); assay: as above; assay type: biochemical; settings: compound at 10 nM
Protocol: as §1, §2, §5

CDK7 = CDK7 (Homo sapiens, UniProt P50613); assay: as above; assay type: biochemical; settings: compound at 10 nM
Protocol: as §1, §2, §5

ITK = ITK (Homo sapiens, UniProt Q08881); assay: as above; assay type: biochemical; settings: compound at 10 nM
Protocol: as §1, §2, §5

LRRK2 = LRRK2 (Homo sapiens, UniProt Q5S007); assay: as above; assay type: biochemical; settings: compound at 10 nM
Protocol: as §1, §2, §5

JAK1 = JAK1 (Homo sapiens, UniProt P23458); assay: as above; assay type: biochemical; settings: compound at 10 nM
Protocol: as §1, §2, §5

TYK2 = TYK2 (Homo sapiens, UniProt P29597); assay: as above; assay type: biochemical; settings: compound at 10 nM
Protocol: as §1, §2, §5

Chain of CDK9 (P50750 whole entry): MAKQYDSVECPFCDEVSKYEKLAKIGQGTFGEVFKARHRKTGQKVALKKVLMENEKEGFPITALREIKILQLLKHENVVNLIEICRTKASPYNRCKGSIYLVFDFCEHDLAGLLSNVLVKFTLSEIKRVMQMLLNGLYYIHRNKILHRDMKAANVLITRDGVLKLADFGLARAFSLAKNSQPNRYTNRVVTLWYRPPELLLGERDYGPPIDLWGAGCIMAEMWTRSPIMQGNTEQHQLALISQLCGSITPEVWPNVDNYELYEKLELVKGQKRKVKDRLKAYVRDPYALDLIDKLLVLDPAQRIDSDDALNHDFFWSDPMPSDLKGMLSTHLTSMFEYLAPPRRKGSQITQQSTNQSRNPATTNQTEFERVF
Chain of CDK9 (O60563 whole entry partner): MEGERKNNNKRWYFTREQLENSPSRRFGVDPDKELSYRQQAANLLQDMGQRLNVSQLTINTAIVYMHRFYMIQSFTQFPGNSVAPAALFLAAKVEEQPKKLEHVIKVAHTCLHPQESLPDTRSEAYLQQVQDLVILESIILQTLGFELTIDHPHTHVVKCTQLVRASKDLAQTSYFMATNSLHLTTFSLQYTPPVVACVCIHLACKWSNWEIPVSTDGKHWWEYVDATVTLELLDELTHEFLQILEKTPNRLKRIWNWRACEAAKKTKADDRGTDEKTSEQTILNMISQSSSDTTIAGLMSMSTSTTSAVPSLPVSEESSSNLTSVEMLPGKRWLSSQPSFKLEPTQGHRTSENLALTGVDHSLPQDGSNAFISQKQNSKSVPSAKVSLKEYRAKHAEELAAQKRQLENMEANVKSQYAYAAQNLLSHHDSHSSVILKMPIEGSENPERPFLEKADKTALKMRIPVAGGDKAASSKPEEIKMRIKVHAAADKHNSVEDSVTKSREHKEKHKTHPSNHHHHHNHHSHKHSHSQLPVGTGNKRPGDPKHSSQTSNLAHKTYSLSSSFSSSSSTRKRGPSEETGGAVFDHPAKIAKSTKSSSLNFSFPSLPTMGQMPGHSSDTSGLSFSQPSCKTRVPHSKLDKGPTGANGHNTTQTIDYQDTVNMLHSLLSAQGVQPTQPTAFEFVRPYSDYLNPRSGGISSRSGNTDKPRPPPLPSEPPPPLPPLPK
Chain of JAK1 (P23458 whole entry): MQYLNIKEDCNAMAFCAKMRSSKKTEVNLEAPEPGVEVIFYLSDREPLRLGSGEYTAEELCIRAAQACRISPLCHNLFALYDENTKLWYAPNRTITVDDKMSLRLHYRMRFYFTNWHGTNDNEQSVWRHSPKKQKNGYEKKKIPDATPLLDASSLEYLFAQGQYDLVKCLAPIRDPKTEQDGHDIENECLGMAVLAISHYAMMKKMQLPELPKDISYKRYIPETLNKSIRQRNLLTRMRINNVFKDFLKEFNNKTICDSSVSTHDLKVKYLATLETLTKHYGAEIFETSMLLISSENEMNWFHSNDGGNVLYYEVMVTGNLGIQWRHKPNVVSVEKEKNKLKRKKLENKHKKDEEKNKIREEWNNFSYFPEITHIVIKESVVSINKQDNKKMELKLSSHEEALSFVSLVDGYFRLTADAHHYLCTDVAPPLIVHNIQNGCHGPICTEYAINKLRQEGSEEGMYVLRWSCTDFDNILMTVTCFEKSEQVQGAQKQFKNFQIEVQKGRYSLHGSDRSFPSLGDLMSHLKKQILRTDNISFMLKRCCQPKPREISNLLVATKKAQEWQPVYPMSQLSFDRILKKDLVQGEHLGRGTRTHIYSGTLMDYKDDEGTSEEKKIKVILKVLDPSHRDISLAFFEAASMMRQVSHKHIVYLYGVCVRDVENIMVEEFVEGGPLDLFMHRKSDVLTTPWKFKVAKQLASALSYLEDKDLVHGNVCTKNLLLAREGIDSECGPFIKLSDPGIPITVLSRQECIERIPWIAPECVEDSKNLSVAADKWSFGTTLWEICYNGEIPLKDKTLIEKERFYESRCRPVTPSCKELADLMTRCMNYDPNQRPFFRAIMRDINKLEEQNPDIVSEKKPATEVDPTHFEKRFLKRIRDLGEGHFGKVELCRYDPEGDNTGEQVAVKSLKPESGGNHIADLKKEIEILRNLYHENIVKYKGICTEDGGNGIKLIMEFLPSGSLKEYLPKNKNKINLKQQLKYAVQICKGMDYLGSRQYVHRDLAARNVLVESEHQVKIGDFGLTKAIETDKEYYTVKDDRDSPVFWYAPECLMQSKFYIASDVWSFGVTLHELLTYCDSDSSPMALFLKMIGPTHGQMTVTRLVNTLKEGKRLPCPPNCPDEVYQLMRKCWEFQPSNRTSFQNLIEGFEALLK
Chain of JAK3 (P52333 whole entry): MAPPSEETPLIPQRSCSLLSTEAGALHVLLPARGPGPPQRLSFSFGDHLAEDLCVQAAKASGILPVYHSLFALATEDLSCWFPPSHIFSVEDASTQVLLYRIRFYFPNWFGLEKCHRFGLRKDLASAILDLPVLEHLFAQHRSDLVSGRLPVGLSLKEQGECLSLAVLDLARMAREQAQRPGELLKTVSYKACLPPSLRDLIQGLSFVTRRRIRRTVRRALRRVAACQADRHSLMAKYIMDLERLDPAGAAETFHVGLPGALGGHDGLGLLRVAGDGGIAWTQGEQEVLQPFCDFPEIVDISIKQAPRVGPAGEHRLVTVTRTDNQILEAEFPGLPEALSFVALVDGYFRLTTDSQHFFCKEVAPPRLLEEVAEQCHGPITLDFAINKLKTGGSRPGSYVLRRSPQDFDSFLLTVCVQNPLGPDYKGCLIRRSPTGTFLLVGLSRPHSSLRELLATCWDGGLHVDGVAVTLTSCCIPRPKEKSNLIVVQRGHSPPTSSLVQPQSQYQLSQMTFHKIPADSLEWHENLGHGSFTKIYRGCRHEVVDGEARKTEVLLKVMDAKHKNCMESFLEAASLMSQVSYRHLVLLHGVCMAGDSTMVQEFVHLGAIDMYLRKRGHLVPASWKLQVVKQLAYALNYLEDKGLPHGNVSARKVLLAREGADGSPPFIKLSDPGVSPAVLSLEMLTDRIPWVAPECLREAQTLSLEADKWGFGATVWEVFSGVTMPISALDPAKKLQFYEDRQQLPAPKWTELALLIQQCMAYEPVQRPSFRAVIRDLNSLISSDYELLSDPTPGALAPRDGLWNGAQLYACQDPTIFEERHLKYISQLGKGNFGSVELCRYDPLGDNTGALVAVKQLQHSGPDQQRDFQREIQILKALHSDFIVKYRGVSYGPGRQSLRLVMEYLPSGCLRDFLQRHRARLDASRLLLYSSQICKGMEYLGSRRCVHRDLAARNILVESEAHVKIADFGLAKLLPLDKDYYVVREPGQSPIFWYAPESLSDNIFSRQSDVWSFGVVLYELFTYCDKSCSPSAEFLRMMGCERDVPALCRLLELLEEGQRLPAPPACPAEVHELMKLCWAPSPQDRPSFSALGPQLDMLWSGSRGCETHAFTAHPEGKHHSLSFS
Chain of ITK (Q08881 whole entry): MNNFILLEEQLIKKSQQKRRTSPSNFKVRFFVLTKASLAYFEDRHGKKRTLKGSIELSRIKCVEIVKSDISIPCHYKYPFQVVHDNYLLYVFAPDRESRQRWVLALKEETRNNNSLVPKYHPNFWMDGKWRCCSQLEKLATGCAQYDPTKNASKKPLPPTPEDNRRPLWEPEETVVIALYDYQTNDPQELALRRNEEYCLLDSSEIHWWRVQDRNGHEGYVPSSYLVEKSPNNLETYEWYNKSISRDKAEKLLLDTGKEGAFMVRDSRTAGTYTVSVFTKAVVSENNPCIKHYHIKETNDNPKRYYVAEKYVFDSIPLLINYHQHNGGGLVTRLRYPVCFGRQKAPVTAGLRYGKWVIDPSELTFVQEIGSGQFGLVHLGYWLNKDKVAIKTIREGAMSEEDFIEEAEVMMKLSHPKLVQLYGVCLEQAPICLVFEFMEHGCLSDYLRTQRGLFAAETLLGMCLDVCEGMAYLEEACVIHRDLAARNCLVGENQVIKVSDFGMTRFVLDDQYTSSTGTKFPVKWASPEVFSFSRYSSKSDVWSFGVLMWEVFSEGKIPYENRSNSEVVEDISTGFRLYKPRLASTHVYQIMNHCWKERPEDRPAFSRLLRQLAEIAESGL
Chain of RET (P07949 29-1114): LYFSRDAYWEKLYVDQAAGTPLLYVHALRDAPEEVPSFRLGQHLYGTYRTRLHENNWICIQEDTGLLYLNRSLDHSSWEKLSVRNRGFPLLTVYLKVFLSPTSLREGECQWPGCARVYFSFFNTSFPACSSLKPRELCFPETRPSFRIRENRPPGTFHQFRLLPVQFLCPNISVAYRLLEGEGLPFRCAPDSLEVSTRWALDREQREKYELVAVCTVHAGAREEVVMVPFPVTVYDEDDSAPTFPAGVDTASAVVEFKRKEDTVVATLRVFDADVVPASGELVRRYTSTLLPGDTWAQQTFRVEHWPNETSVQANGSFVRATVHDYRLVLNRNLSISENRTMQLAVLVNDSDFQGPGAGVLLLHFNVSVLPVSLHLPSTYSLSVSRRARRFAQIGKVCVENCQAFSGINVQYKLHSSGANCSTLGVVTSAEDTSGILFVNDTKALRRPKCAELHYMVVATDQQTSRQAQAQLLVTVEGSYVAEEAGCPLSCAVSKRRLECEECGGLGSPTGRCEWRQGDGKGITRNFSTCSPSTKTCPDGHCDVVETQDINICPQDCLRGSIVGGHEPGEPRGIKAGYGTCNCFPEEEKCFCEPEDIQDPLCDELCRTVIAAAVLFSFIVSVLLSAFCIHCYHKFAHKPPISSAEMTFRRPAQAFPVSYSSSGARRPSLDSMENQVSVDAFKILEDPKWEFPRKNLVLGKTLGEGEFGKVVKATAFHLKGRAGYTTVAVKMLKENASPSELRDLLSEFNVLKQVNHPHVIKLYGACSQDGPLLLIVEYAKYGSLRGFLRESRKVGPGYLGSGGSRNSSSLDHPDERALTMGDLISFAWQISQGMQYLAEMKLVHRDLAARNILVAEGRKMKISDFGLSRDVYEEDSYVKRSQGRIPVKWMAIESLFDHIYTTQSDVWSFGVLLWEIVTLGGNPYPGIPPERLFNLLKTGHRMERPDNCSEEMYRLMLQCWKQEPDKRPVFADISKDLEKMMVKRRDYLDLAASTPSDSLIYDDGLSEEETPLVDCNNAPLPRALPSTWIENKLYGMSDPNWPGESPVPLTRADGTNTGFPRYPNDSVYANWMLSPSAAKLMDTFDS

Q: Which results are given for `Clc1cnc2nc1NCCCCCNCc1cccc(c1)N2` [Compound 8, 1^5-chloro-2,5,11-triaza-1(2,4)-pyrimidina-3(1,3)-benzenacyclodecaphane]?
A: IC50 (CDK9; 10 concentrations from 10 µM, three-fold dilutions): < 0.1 µM; inhibition at 0.01 µM (CDK9; selectivity panel Table 3, read-out: Inhibition rate CDK9): > 50%; inhibition at 0.01 µM (CDK9; read-out: Inhibition rate on CDK9 kinase activity): > 50%; IC50 (A375): < 0.25 µM; IC50 (HCC1187): 0.25 to 1 µM; IC50 (Mia-Paca-2): < 0.25 µM; IC50 (MV-4-11): < 0.25 µM; inhibition at 0.01 µM (JAK2): 25 to 49%; inhibition at 0.01 µM (JAK3): < 25%; inhibition at 0.01 µM (RET): < 25%; inhibition at 0.01 µM (CDK7): < 25%; inhibition at 0.01 µM (ITK): < 25%; inhibition at 0.01 µM (LRRK2): < 25%; inhibition at 0.01 µM (JAK1): < 25%; inhibition at 0.01 µM (TYK2): < 25%
